Experimental data published in patent publication US11510993B2, “Antibody drug conjugate for anti-inflammatory applications” (Merck Sharp & Dohme Corp., priority 2015, dated 2022).

Tests used:
[1] = tested on: GILZ mRNA in SUDHL-6 cells (CD74 positive B lymphoma); assay: GILZ mRNA induction in SUDHL-6 cells (RT-PCR); type: cell-based, human; conditions: 18 hours; for Emax: GILZ mRNA relative fold of change; for EC50: Homo sapiens, SU-DHL-6, GILZ mRNA, free drug
Procedure: (§1) In vitro activity and targeted delivery of ADC 12-4, 12-5, 12-6, 12-7, 12-9, 12-10, the isotype-matched negative controls 12-11, 12-12, and naked anti-hCD74 (LL1) control were assessed in HUT-78 an SUDHL-6 cells (CD74 positive T and B lymphoma cell lines respectively) as well as 786-O cells (a CD74 negative renal carcinoma cell line). The cells were treated with individual ADC, anti-hCD74 antibody, or budesonide (Bud) for 18 hours and then glucocorticoid-induced leucine zipper (GILZ) mRNA, a glucocorticoid-regulated gene, was measured by RT-PCR. […] (The activity at the highest concentration in 786-O cells may be due to impurity of the sample or possible low CD74 expression in cells.). The overall activity profile of the ADC is consistent with targeted delivery of a payload (e.g. dexamethasone or budesonide) that is dependent on the binding and internalization of the antibody with its antigen on the cell surface, and on the efficiency of linker cleavage inside the cells.
(§2) The quantitation of Glucocorticoid-induced leucine zipper (GILZ) mRNA expression was determined by real time-PCR. In brief, actively growing cells were harvested and then resuspended in the assay buffer (HBSS plus 2% FBS) at concentration of 1.1×10^6/ml. 5×10^4 cells/well in 45 μl volume were plated to Greiner 384 well v-bottom reagent plates (Ref #781280). […] After 18 hour incubation, the cells were lysed, and the lysates were used for cDNA synthesis and real-time PCR, according to manufacturer's instructions in TaqMan Gene Expression Cells-to-CT™ Kit (Invitrogen, Carlsbad, Calif.). Specific primers against human GILZ and GAPDH were purchased from the Life Technologies (Invitrogen, Carlsbad, Calif.). Real-time PCR reactions were performed on the Applied Biosystems 7900 HT Fast Real-Time PCR System. Thermal cycling conditions consisted of an initial UDG incubation hold (50° C., 2 min) denaturing and enzyme activation step (95° C., 2 min) followed by 40 cycles of denaturing (95° C., 15 s), annealing and extending (60° C., 1 min). The mRNA levels were normalized to GAPDH (internal control) using the formula Δ threshold cycle (CT)=CT target−CT reference. The differential expression signal were expressed as delta Ct (ΔCt) by subtracting the Ct values of the un-stimulated samples (containing only assay buffer or DMSO vehicle) from those of the stimulated samples and expressed as relative fold of change using the formula: 2^ΔΔCT. The graphs were generated in GraphPad Prism and the EC50 values were calculated with non-linear regression curve fit of the data in GraphPad Prism.

[2] = tested on: GILZ mRNA in 786-O cells (CD74 negative renal carcinoma); assay: GILZ mRNA induction in 786-O cells (RT-PCR); type: cell-based, human; conditions: 786-0 cells (CD74(—)), 18 hours; for Emax: GILZ mRNA relative fold of change; for EC50: Homo sapiens, GILZ mRNA, free drug
Procedure: as §1, §2

[3] = tested on: GILZ mRNA in HUT-78 cells (CD74 positive T lymphoma); assay: GILZ mRNA induction in HUT-78 cells (RT-PCR); type: cell-based, human; conditions: 18 hours; for Emax: GILZ mRNA relative fold of change; for EC50: Homo sapiens, HuT78, GILZ mRNA, free drug
Procedure: as §1, §2

[4] = In vitro stability of drug-linkers in rat liver lysosomal lysate (parent and released dexamethasone, LC-MS/MS); conditions: for Calculated Conc. for dexamethasone rat lysomeal lysate: released dexamethasone
Procedure: Rat Liver lysosomes were available commercially with a pool of 6 animals. All linker compounds were solubilized in DMSO to form each 10 mM stock solution. Dosing solution for each linker was prepared by serial dilution of each stock solution using 1:3 acetonitrile: water. All solutions were kept on ice during the experiment.
Rat lysosomes were pre-warmed in a 37° C. water bath in an appropriate volume to collect samples over a time course from 0 minutes through 6 hours. Incubating lysosomes were mixed well just prior to sampling to give a homogenous mixture. Aliquots of lysosomes were removed at appropriate time points, added to cold stopping solution, which was methanol containing an appropriate internal standard, and mixed rigorously. The samples were centrifuged at 4000 RPM for 10 minutes after which equal volumes of supernatant were diluted with cold deionized water. The samples were ready for analysis.
(§3) A Thermo LX-2 ultra-performance liquid chromatography system coupled with a Sciex API5000 triple quadrupole mass spectrometer was used for the analysis. The payload and drug-linkers were retained and separated by a C18 column and detected by the mass spectrometer. […] Samples were kept in cold stack set at 5° C.

[5] = In vitro stability of drug-linkers in human whole blood (parent and released dexamethasone, LC-MS/MS); conditions: for Calculated Conc. for dexamethasone in human whole blood: released dexamethasone
Procedure: General Experimental Procedure Human Blood Incubation Human blood was collected the morning of the experiment from at least 3 individuals using K2EDTA as the anticoagulant. An equal volume from each individual was combined for use in the experiment. The experiment started no more than 2 hours after the blood collection. All drug-linker conjugates were solubilized in DMSO to form each 10 mM stock solution. Dosing solution for each linker was prepared by serial dilution of each stock solution using 1:3 acetonitrile:water. All solutions were kept on ice during the experiment.
Human blood was pre-warmed in a 37° C. water bath in an appropriate volume to collect samples over a time course from 0 through 6 hours. Incubating blood was mixed well just prior to sampling to give a homogenous mixture. Aliquots of blood were removed at appropriate time points, added to cold stopping solution, which was methanol containing an appropriate internal standard, and mixed rigorously. The samples were centrifuged at 4000 RPM for 10 minutes after which equal volumes of the supernatant fractions were diluted with cold deionized water. The samples were then ready for analysis.
as §3

[6] = Solubility of drug-linkers in 20% MeCN/H2O; type: physicochemical; conditions: tested at a concentration of 10 mg/mL
Procedure: The solubility of exemplary drug-linker conjugates in aqueous solutions was evaluated. Linkers utilized in drug conjugates may have aqueous solubility to enable conjugation in aqueous media amenable to protein solubilization. Furthermore, linkers with aqueous solubility are considered hydrophilic, and may confer to the drug conjugate a reduced propensity to aggregate relative to standard hydrophobic linkers in the literature. The following exemplary drug-linkers were tested in an aqueous solution comprising 20% acetonitrile (MeCN/H2O) for solubility at a concentration of 10 mg/mL.

[7] = Matrix spiking (lysosomes pretreated with stopping reagent)

Molecule	Emax [1]	EC50 [1] [nM]	Emax [2]	EC50 [2] [nM]	Emax [3]	EC50 [3] [nM]	Calculated Conc. for each compound in rat lysomal lysate ([4]; 0 m, 37° C.) [nM]	Calculated Conc. for each compound in rat lysomal lysate ([4]; 5 m, 37° C.) [nM]	Calculated Conc. for each compound in rat lysomal lysate ([4]; 10 m, 37° C.) [nM]	Calculated Conc. for each compound in rat lysomal lysate ([4]; 15 m, 37° C.) [nM]	Calculated Conc. for each compound in rat lysomal lysate [4, 7] [nM]	Calculated Conc. for each compound in human whole blood ([5]; 0 m, 37° C.) [nM]	Calculated Conc. for each compound in human whole blood ([5]; 1 hr, 37° C.) [nM]	Measured Solubility in 20% MeCN/H2O [6] [µg/mL]	other results
CCCC1O[C@@H]2C[C@H]3[C@@H]4CCC5=CC(=O)C=C[C@]5(C)[C@H]4[C@@H](O)C[C@]3(C)[C@]2(C(=O)CO)O1 (some centres unmarked) [Budesonide, budesonide]	14.33	2.21	25.68	0.58	9.03	0.65									
C[C@@H]1C[C@H]2[C@@H]3CCC4=CC(=O)C=C[C@]4(C)[C@@]3(F)[C@@H](O)C[C@]2(C)[C@@]1(O)C(=O)COP(=O)(O)OP(=O)(O)OCCNC(=O)COC1C#CCCCCC1 (stereo partly drawn) [Drug Linker 1-4, 2-(2-(cyclooct-2-yn-1-yloxy)acetamido)ethyl(2-((8 S,9R,10S,11S,13 S,14 S,16R,17R)-9-fluoro-11,17-dihydroxy-10,13,16-trimethyl-3-oxo-6,7,8,9,10,11,12,13,14,15,16,17-dodecahydro-3H-cyclopenta[a]phenanthren-17-yl)-2-oxoethyl) dihydrogen pyrophosphate]							1148.2	158.2	19.0	3.7	2487.3	1617	1421	>10000	Calculated Conc. for dexamethasone rat lysomeal lysate ([4]; 0 m): 4.7 nM; Calculated Conc. for dexamethasone rat lysomeal lysate ([4]; 5 m): 320.7 nM; Calculated Conc. for dexamethasone rat lysomeal lysate ([4]; 10 m): 559.4 nM; Calculated Conc. for dexamethasone rat lysomeal lysate ([4]; 15 m): 831.7 nM; Calculated Conc. for dexamethasone rat lysomeal lysate ([4]; 30 m): 1059.6 nM; Calculated Conc. for dexamethasone rat lysomeal lysate ([4]; 1 hr): 1148.8 nM; Calculated Conc. for dexamethasone rat lysomeal lysate ([4]; 2 hr): 854.5 nM; Calculated Conc. for dexamethasone rat lysomeal lysate ([4]; 3 hr): 841.9 nM; Calculated Conc. for dexamethasone rat lysomeal lysate ([4]; 6 hr): 826.6 nM; Calculated Conc. for each compound in human whole blood ([5]; 6 hr, 37° C.): 1400 nM; Calculated Conc. for each compound in human whole blood ([5]; Matrix spiking (time 0 sample, blood pretreated with stopping reagent)): 3059 nM; Calculated Conc. for dexamethasone in human whole blood ([5]; 0 m): 0 nM; Calculated Conc. for dexamethasone in human whole blood ([5]; 1 hr): 0 nM; Calculated Conc. for dexamethasone in human whole blood ([5]; 6 hr): 0 nM; Calculated Conc. for dexamethasone in human whole blood ([5]; Matrix Spiking): 2 nM
C[C@@H]1C[C@H]2[C@@H]3CCC4=CC(=O)C=C[C@]4(C)[C@@]3(F)[C@@H](O)C[C@]2(C)[C@@]1(O)C(=O)COP(=O)(O)Oc1ccc(NC(=O)COC2C#CCCCCC2)cc1 (stereo partly drawn) [Drug Linker 5-3, 4-(2-(cyclooct-2-yn-1-yloxy)acetamido)phenyl (2-((8S,9R,10S,11S,13S,14S,16R,17R)-9-fluoro-11,17-dihydroxy-10,13,16-trimethyl-3-oxo-6,7,8,9,10,11,12,13,14,15,16,17-dodecahydro-3H-cyclopenta[a]phenanthren-17-yl)-2-oxoethyl) hydrogen phosphate]							1394.08	1295.86	1278.4	1407.73	2555.29	1299	937	>10000	Calculated Conc. for each compound in rat lysomal lysate ([4]; 30 m, 37° C.): 1175.39 nM; Calculated Conc. for each compound in rat lysomal lysate ([4]; 1 hr, 37° C.): 970.65 nM; Calculated Conc. for each compound in rat lysomal lysate ([4]; 2 hr, 37° C.): 743.45 nM; Calculated Conc. for each compound in rat lysomal lysate ([4]; 3 hr, 37° C.): 500.41 nM; Calculated Conc. for each compound in rat lysomal lysate ([4]; 6 hr, 37° C.): 221.03 nM; rate of dexamethasone release in rat lysosomal extract (in words) ([4]; compared with 3-4, 5-3 releasing faster than 4-3): more slowly released; Calculated Conc. for each compound in human whole blood ([5]; 5 m, 37° C.): 1251 nM; Calculated Conc. for each compound in human whole blood ([5]; 15 m, 37° C.): 1276 nM; Calculated Conc. for each compound in human whole blood ([5]; 30 m, 37° C.): 1111 nM; Calculated Conc. for each compound in human whole blood ([5]; 2 hr, 37° C.): 1480 nM
CCC(=O)O[C@]1(C(=O)SCF)[C@H](C)C[C@H]2[C@@H]3C[C@H](F)C4=CC(=O)C=C[C@]4(C)[C@@]3(F)[C@@H](O)C[C@@]21C [Fluticasone Propionate, fluticasone propionate]	15.78	0.52	25.38	0.46	10.27	0.45									
CD74 Ab: anti-CD74 antibody LL1, HC SEQ ID NO:69, LC SEQ ID NO:73, pAzF at position 121	1.02		1.02		1.34										
